# Tested on: MV-4-11 cells
# Test: Gene expression microarray analysis (Affymetrix PrimeView) and GSEA
# Format: cell-based, human
# Design: RFU PODN (11730768_x_at) / Fold change /veh PODN (11730768_x_at) / RFU LINC00158 (11744669_a_at) / Fold change /veh LINC00158 (11744669_a_at) / RFU DUSP10 (11751237_a_at) / Fold change /veh DUSP10 (11751237_a_at) / RFU ID3 (11757404_x_at) / Fold change /veh ID3 (11757404_x_at) / RFU PLEKHG5 (11737974_s_at) / Fold change /veh PLEKHG5 (11737974_s_at) / RFU LRRC4B (11730491_at) / Fold change /veh LRRC4B (11730491_at) / RFU GIMAP4 (11747438_a_at) / Fold change /veh GIMAP4 (11747438_a_at) / RFU KRT8 (11758183_x_at) / Fold change /veh KRT8 (11758183_x_at) / RFU CNN1 (11734310_a_at) / Fold change /veh CNN1 (11734310_a_at) / RFU VPS37D (11726825_at) / Fold change /veh VPS37D (11726825_at) / RFU C10orf10 (11716522_x_at) / Fold change /veh C10orf10 (11716522_x_at) / RFU KIR2DL2 /// KIR2DL4 /// KIR2DL5A /// KIR2DL5B /// KIR2DS1 /// KIR2DS2 /// KIR2DS3 /// KIR2DS4 /// KIR3DL3 /// KIR3DL3 /// KIR3DS1 (11738374_at) / Fold change /veh KIR2DL2 /// KIR2DL4 /// KIR2DL5A /// KIR2DL5B /// KIR2DS1 /// KIR2DS2 /// KIR2DS3 /// KIR2DS4 /// KIR3DL3 /// KIR3DL3 /// KIR3DS1 (11738374_at) / RFU C1QL1 (11718748_at) / Fold change /veh C1QL1 (11718748_at) / RFU TMPRSS4 (11747572_a_at) / Fold change /veh TMPRSS4 (11747572_a_at) / RFU HAMP (11756126_x_at) / Fold change /veh HAMP (11756126_x_at) / RFU RNFT2 (11725882_a_at) / Fold change /veh RNFT2 (11725882_a_at) / RFU NR4A2 (11747474_a_at) / Fold change /veh NR4A2 (11747474_a_at) / RFU ABCC12 (11746883_a_at) / Fold change /veh ABCC12 (11746883_a_at) / RFU TMEM136 (11760407_x_at) / Fold change /veh TMEM136 (11760407_x_at) / RFU CLDN22 /// WWC2 (11732394_at) / Fold change /veh CLDN22 /// WWC2 (11732394_at) / RFU HLA-DPB1 (11760878_x_at) / Fold change /veh HLA-DPB1 (11760878_x_at) / RFU SPINT1 (11716480_a_at) / Fold change /veh SPINT1 (11716480_a_at) / RFU GAP43 (11754022_s_at) / Fold change /veh GAP43 (11754022_s_at) / RFU A4GNT (11735810_at) / Fold change /veh A4GNT (11735810_at) / RFU PRB3 (11715151_x_at) / Fold change /veh PRB3 (11715151_x_at) / RFU TUBB4B (11761932_at) / Fold change /veh TUBB4B (11761932_at) / RFU CAPN14 (11732068_a_at) / Fold change /veh CAPN14 (11732068_a_at) / RFU TMCC2 (11721928_a_at) / Fold change /veh TMCC2 (11721928_a_at) / RFU IRGQ (11745062_a_at) / Fold change /veh IRGQ (11745062_a_at) / RFU FAM174B (11720279_a_at) / Fold change /veh FAM174B (11720279_a_at) / RFU TMPRSS4 (11748680_a_at) / Fold change /veh TMPRSS4 (11748680_a_at) / RFU FAM212B (11763350_a_at) / Fold change /veh FAM212B (11763350_a_at) / RFU PLEKHG5 (11743358_a_at) / Fold change /veh PLEKHG5 (11743358_a_at) / RFU ZSCAN30 (11745921_a_at) / Fold change /veh ZSCAN30 (11745921_a_at) / RFU CMKLR1 (11741424_a_at) / Fold change /veh CMKLR1 (11741424_a_at) / RFU LOC101060620 /// MAPK8IP1 (11723275_at) / Fold change /veh LOC101060620 /// MAPK8IP1 (11723275_at) / RFU SPTSSB (11747773_x_at) / Fold change /veh SPTSSB (11747773_x_at) / RFU PRSS12 (11739890_at) / Fold change /veh PRSS12 (11739890_at) / RFU BIN1 (11741810_x_at) / Fold change /veh BIN1 (11741810_x_at) / RFU WNT11 (11732464_a_at) / Fold change /veh WNT11 (11732464_a_at) / RFU C10orf10 (11716521_a_at) / Fold change /veh C10orf10 (11716521_a_at) / RFU C5orf56 (11738089_at) / Fold change /veh C5orf56 (11738089_at) / RFU CYB561 (11721691_x_at) / Fold change /veh CYB561 (11721691_x_at) / RFU ANKRD19P (11752326_a_at) / Fold change /veh ANKRD19P (11752326_a_at) / RFU OR2T12 /// OR2T33 /// OR2T8 (11738714_s_at) / Fold change /veh OR2T12 /// OR2T33 /// OR2T8 (11738714_s_at) / RFU VCAN (11748164_a_at) / Fold change /veh VCAN (11748164_a_at) / RFU JSRP1 (11732532_at) / Fold change /veh JSRP1 (11732532_at) / RFU KRTAP10-11 (11738290_x_at) / Fold change /veh KRTAP10-11 (11738290_x_at) / RFU MYO3A (11730013_a_at) / Fold change /veh MYO3A (11730013_a_at) / RFU EBF3 (11725865_a_at) / Fold change /veh EBF3 (11725865_a_at) / RFU CAMK2N1 (11719241_x_at) / Fold change /veh CAMK2N1 (11719241_x_at) / RFU C5orf56 (11738088_a_at) / Fold change /veh C5orf56 (11738088_a_at) / RFU OLFML3 (11715873_a_at) / Fold change /veh OLFML3 (11715873_a_at) / RFU LOC100653217 /// NTM (11731650_a_at) / Fold change /veh LOC100653217 /// NTM (11731650_a_at) / RFU MAPK11 (11762145_a_at) / Fold change /veh MAPK11 (11762145_a_at) / RFU FIZ1 (11724087_x_at) / Fold change /veh FIZ1 (11724087_x_at) / RFU OASL (11726364_x_at) / Fold change /veh OASL (11726364_x_at) / RFU SOX15 (11748057_x_at) / Fold change /veh SOX15 (11748057_x_at) / RFU CD79A (11719716_a_at) / Fold change /veh CD79A (11719716_a_at) / RFU HIST1H1D (11736915_at) / Fold change /veh HIST1H1D (11736915_at) / RFU CASKIN2 (11723855_a_at) / Fold change /veh CASKIN2 (11723855_a_at) / RFU LOC730098 (11760151_x_at) / Fold change /veh LOC730098 (11760151_x_at) / RFU OR4N2 (11742367_at) / Fold change /veh OR4N2 (11742367_at) / RFU PRRT2 (11749266_a_at) / Fold change /veh PRRT2 (11749266_a_at) / RFU SNX32 (11753110_a_at) / Fold change /veh SNX32 (11753110_a_at) / RFU CDHR5 (11726645_a_at) / Fold change /veh CDHR5 (11726645_a_at) / RFU RCAN1 (11760418_a_at) / Fold change /veh RCAN1 (11760418_a_at) / RFU FAM167A (11723789_a_at) / Fold change /veh FAM167A (11723789_a_at) / RFU FAM26E (11764081_at) / Fold change /veh FAM26E (11764081_at) / RFU ISYNA1 (11749810_s_at) / Fold change /veh ISYNA1 (11749810_s_at) / RFU ACY1 (11761880_at) / Fold change /veh ACY1 (11761880_at) / RFU 11764098_at / Fold change /veh 11764098_at / RFU SAMD14 (11745864_x_at) / Fold change /veh SAMD14 (11745864_x_at) / RFU NPB (11741838_a_at) / Fold change /veh NPB (11741838_a_at) / RFU TMPRSS6 (11731388_a_at) / Fold change /veh TMPRSS6 (11731388_a_at) / RFU KRTAP10-2 (11738614_at) / Fold change /veh KRTAP10-2 (11738614_at) / RFU ARHGAP8 /// PRR5-ARHGAP8 (11727945_x_at) / Fold change /veh ARHGAP8 /// PRR5-ARHGAP8 (11727945_x_at) / RFU KRTAP5-7 /// NADSYN1 (11734609_at) / Fold change /veh KRTAP5-7 /// NADSYN1 (11734609_at) / RFU RASL12 (11751679_a_at) / Fold change /veh RASL12 (11751679_a_at) / RFU CDKN2B (11736163_a_at) / Fold change /veh CDKN2B (11736163_a_at) / RFU PRF1 (11729649_at) / Fold change /veh PRF1 (11729649_at) / RFU, ZNF638 /// ZNF638-IT1 / Fold change vs veh, ZNF638 /// ZNF638-IT1 / RFU, PANK3 / Fold change vs veh, PANK3 / RFU, SH3YL1 / Fold change vs veh, SH3YL1 / RFU, ZEB2 / Fold change vs veh, ZEB2 / RFU, NRIP1 / Fold change vs veh, NRIP1 / RFU, PTTG1IP / Fold change vs veh, PTTG1IP / RFU, CAPN2 / Fold change vs veh, CAPN2 / RFU, MED14 / Fold change vs veh, MED14 / RFU, SNORA58 / Fold change vs veh, SNORA58 / RFU, C1orf63 / Fold change vs veh, C1orf63 / RFU, LRRFIP1 / Fold change vs veh, LRRFIP1 / RFU, NDUFAF7 / Fold change vs veh, NDUFAF7 / RFU, SLC12A2 / Fold change vs veh, SLC12A2 / RFU, IBTK / Fold change vs veh, IBTK / RFU, ESF1 / Fold change vs veh, ESF1 / Fold change vs veh, TMEM50B / RFU, TAOK1 / Fold change vs veh, TAOK1 / RFU, ACBD3 / Fold change vs veh, ACBD3 / RFU, TMA16 / Fold change vs veh, TMA16 / RFU, RWDD3 / Fold change vs veh, RWDD3 / RFU, BCAT1 / Fold change vs veh, BCAT1 / RFU, EDEM3 / Fold change vs veh, EDEM3 / RFU, TMEM33 / Fold change vs veh, TMEM33 / RFU, WDR75 / Fold change vs veh, WDR75 / RFU, AHCTF1 / Fold change vs veh, AHCTF1 / RFU, TFRC / Fold change vs veh, TFRC / RFU, ZDHHC17 / Fold change vs veh, ZDHHC17 / RFU, NOM1 / Fold change vs veh, NOM1 / RFU, ARL8B / Fold change vs veh, ARL8B / RFU, ZBTB11 / Fold change vs veh, ZBTB11 / RFU, TAMM41 / Fold change vs veh, TAMM41 / RFU, KIAA1704 /// LOC100996395 / Fold change vs veh, KIAA1704 /// LOC100996395 / RFU, ING1 / Fold change vs veh, ING1 / RFU, TRMT61B / Fold change vs veh, TRMT61B / RFU, FUBP3 / Fold change vs veh, FUBP3 / RFU, TP53 / Fold change vs veh, TP53 / RFU, TNKS2 / Fold change vs veh, TNKS2 / RFU, ZFP14 / Fold change vs veh, ZFP14 / RFU, ACTR2 / Fold change vs veh, ACTR2 / RFU, PPP3R1 / Fold change vs veh, PPP3R1 / RFU, PIK3R1 / Fold change vs veh, PIK3R1 / RFU, HNRNPA1 / Fold change vs veh, HNRNPA1 / RFU, RNF170 / Fold change vs veh, RNF170 / RFU, ZNF28 / Fold change vs veh, ZNF28 / RFU, RNGTT / Fold change vs veh, RNGTT / RFU, OGT / Fold change vs veh, OGT / RFU, BRD1 / Fold change vs veh, BRD1 / RFU, MARS / Fold change vs veh, MARS / RFU, ZNF655 / Fold change vs veh, ZNF655 / RFU, FAHD1 / Fold change vs veh, FAHD1 / RFU, BDP1 / Fold change vs veh, BDP1 / RFU, LRRCC1 / Fold change vs veh, LRRCC1 / RFU, ARID1A / Fold change vs veh, ARID1A / RFU, ZNF146 / Fold change vs veh, ZNF146 / RFU, ZNF330 / Fold change vs veh, ZNF330 / RFU, GPN3 / Fold change vs veh, GPN3 / RFU, C9orf123 / Fold change vs veh, C9orf123 / RFU, N4BP2L2 / Fold change vs veh, N4BP2L2 / RFU, ARFIP1 / Fold change vs veh, ARFIP1 / RFU, FAM179B / Fold change vs veh, FAM179B / RFU, BCL10 / Fold change vs veh, BCL10 / RFU, UHRF1BP1L / Fold change vs veh, UHRF1BP1L / RFU, BET1 / Fold change vs veh, BET1 / RFU, CNOT2 / Fold change vs veh, CNOT2 / RFU, ZNF268 / Fold change vs veh, ZNF268 / Fold change vs veh, ZNF507 / RFU, DGCR2 / Fold change vs veh, DGCR2 / RFU, WDSUB1 / Fold change vs veh, WDSUB1 / Fold change vs veh, HSP90B1 /// MIR3652 / RFU, ADSS / Fold change vs veh, ADSS / RFU, GK / Fold change vs veh, GK / RFU, ZNF148 / Fold change vs veh, ZNF148 / RFU, TAF9 / Fold change vs veh, TAF9 / RFU, SLC1A5 / Fold change vs veh, SLC1A5 / RFU, SLMO2 / Fold change vs veh, SLMO2 / RFU, ABCC4 / Fold change vs veh, ABCC4 / RFU, LOC101060439 /// RAP1B / Fold change vs veh, LOC101060439 /// RAP1B / RFU, RFX7 / Fold change vs veh, RFX7 / RFU, GTPBP10 / Fold change vs veh, GTPBP10 / RFU, CNEP1R1 / Fold change vs veh, CNEP1R1 / RFU, BIVM-ERCC5 /// ERCC5 / Fold change vs veh, BIVM-ERCC5 /// ERCC5 / RFU, ILF3 / Fold change vs veh, ILF3 / RFU 11762660_at / Fold change /veh 11762660_at / RFU VCAN (11757783_s_at) / Fold change /veh VCAN (11757783_s_at) / RFU DDX43 (11728927_at) / Fold change /veh DDX43 (11728927_at) / RFU KRT8 (11758188_x_at) / Fold change /veh KRT8 (11758188_x_at) / RFU NKD1 (11759106_at) / Fold change /veh NKD1 (11759106_at) / RFU SRD5A1 (11742802_a_at) / Fold change /veh SRD5A1 (11742802_a_at) / RFU TPSAB1 /// TPSB2 (11721975_s_at) / Fold change /veh TPSAB1 /// TPSB2 (11721975_s_at) / RFU GSTM3 (11746129_a_at) / Fold change /veh GSTM3 (11746129_a_at) / RFU IL23R (11737362_x_at) / Fold change /veh IL23R (11737362_x_at) / RFU TMEM51 (11727254_a_at) / Fold change /veh TMEM51 (11727254_a_at) / RFU PIWIL2 (11732686_x_at) / Fold change /veh PIWIL2 (11732686_x_at) / RFU ORM1 (11744905_x_at) / Fold change /veh ORM1 (11744905_x_at) / RFU CCDC152 (11743942_at) / Fold change /veh CCDC152 (11743942_at) / RFU ECM1 (11717891_a_at) / Fold change /veh ECM1 (11717891_a_at) / RFU IL23R (11748794_a_at) / Fold change /veh IL23R (11748794_a_at) / RFU TNFAIP8L3 (11732012_x_at) / Fold change /veh TNFAIP8L3 (11732012_x_at) / RFU MBOAT4 (11741988_at) / Fold change /veh MBOAT4 (11741988_at) / RFU 11764193_at / Fold change /veh 11764193_at / RFU TMEM53 (11763286_at) / Fold change /veh TMEM53 (11763286_at) / RFU MAGEB2 (11727129_at) / Fold change /veh MAGEB2 (11727129_at) / RFU TMEM200A (11744735_a_at) / Fold change /veh TMEM200A (11744735_a_at) / RFU CCDC152 (11751479_a_at) / Fold change /veh CCDC152 (11751479_a_at) / RFU FAM211A (11726209_a_at) / Fold change /veh FAM211A (11726209_a_at) / RFU RGS16 (11746705_a_at) / Fold change /veh RGS16 (11746705_a_at) / RFU VCAN (11755009_s_at) / Fold change /veh VCAN (11755009_s_at) / RFU RHOB (11743442_s_at) / Fold change /veh RHOB (11743442_s_at) / RFU RGS16 (11720943_a_at) / Fold change /veh RGS16 (11720943_a_at) / RFU RGS16 (11720944_at) / Fold change /veh RGS16 (11720944_at) / RFU, VPS4B / Fold change vs veh, VPS4B / RFU, CREB1 / Fold change vs veh, CREB1 / RFU, DNAJC13 / Fold change vs veh, DNAJC13 / RFU, GNAQ / Fold change vs veh, GNAQ / RFU, CDK5R1 / Fold change vs veh, CDK5R1 / RFU, ZRANB3 / Fold change vs veh, ZRANB3 / RFU, CUL4A / Fold change vs veh, CUL4A / RFU, CCNY / Fold change vs veh, CCNY / RFU, UFL1 / Fold change vs veh, UFL1 / RFU, COG3 / Fold change vs veh, COG3 / RFU, DIAPH2 / Fold change vs veh, DIAPH2 / RFU, SKA2 / Fold change vs veh, SKA2 / RFU, AFF3 / Fold change vs veh, AFF3 / RFU, LMF1 / Fold change vs veh, LMF1 / RFU, IPO11 / Fold change vs veh, IPO11 / RFU, DFFB / Fold change vs veh, DFFB / RFU, FOXP1 / Fold change vs veh, FOXP1 / RFU, CARD8 / Fold change vs veh, CARD8 / RFU, STRN3 / Fold change vs veh, STRN3 / RFU, ADK / Fold change vs veh, ADK / RFU, RASSF2 / Fold change vs veh, RASSF2 / RFU, WIPF1 / Fold change vs veh, WIPF1 / RFU, LARP1B / Fold change vs veh, LARP1B / RFU, RASA1 / Fold change vs veh, RASA1 / RFU, RB1 / Fold change vs veh, RB1 / RFU, PPFIA1 / Fold change vs veh, PPFIA1 / RFU, MAT2A / Fold change vs veh, MAT2A / RFU, CCT5 / Fold change vs veh, CCT5 / RFU, WDR92 / Fold change vs veh, WDR92 / RFU, CUX1 / Fold change vs veh, CUX1 / RFU, TTC7A / Fold change vs veh, TTC7A / RFU, TMEM135 / Fold change vs veh, TMEM135 / RFU, DEPTOR / Fold change vs veh, DEPTOR / RFU, CPM / Fold change vs veh, CPM / RFU, DNAJB6 / Fold change vs veh, DNAJB6 / RFU, CACNA2D3 / Fold change vs veh, CACNA2D3 / RFU, DTX4 / Fold change vs veh, DTX4 / RFU, TFCP2 / Fold change vs veh, TFCP2 / RFU, GMCL1 /// GMCL1P1 / Fold change vs veh, GMCL1 /// GMCL1P1 / RFU, AEBP2 / Fold change vs veh, AEBP2 / RFU, SNHG1 /// SNORD22 /// SNORD25 /// SNORD26 /// SNORD27 /// SNORD28 /// SNORD29 /// SNORD31 / Fold change vs veh, SNHG1 /// SNORD22 /// SNORD25 /// SNORD26 /// SNORD27 /// SNORD28 /// SNORD29 /// SNORD31 / Fold change (Aza/veh), C12orf56 (ProbeSet 11735607_a_at) / Fold change (ACY-1035/veh), C12orf56 (ProbeSet 11735607_a_at) / Fold change (Aza/veh), FGFR1OP (ProbeSet 11751329_s_at) / Fold change (ACY-1035/veh), FGFR1OP (ProbeSet 11751329_s_at) / Fold change (Aza/veh), VPS36 (ProbeSet 11739960_a_at) / Fold change (ACY-1035/veh), VPS36 (ProbeSet 11739960_a_at) / RFU SYPL1 (11715823_x_at) / Fold change /veh SYPL1 (11715823_x_at) / RFU IGFBP7 (11715501_s_at) / Fold change /veh IGFBP7 (11715501_s_at) / RFU REEP3 (11722064_at) / Fold change /veh REEP3 (11722064_at) / RFU IGLL1 (11728026_x_at) / Fold change /veh IGLL1 (11728026_x_at): dose or concentration left out as unconfirmed
# Settings: MV-4-11 cells, 48 hours
compound,measurement,value
Nc1ncn([C@@H]2O[C@H](CO)[C@@H](O)[C@H]2O)c(=O)n1 [azacitidine],RFU TMCC2 (11721928_a_at),12.72 RFU
